Assay results as given in US7259146B2, “Neuroprotective peptides” (Ortho-McNeil Pharmaceutical, Inc., priority 2000, dated 2007).

What was measured:
rat hippocampal cultures = test: Neurite outgrowth assay (MAP2-FITC immunofluorescence), hippocampal cultures; type: cell-based; conditions: for overall neurite outgrowth response, hippocampal versus cortical cultures: comparison of hippocampal and cortical cultures; for dose-response profile: 10 fM-10 nM
Excerpt: (§1) Dissociated hippocampal and cortical cell cultures were established from embryonic day 18 rat fetuses as previously described (Mattson et al., 1994). Briefly, fetuses were removed via cesarean section from pregnant moms (Sprague-Dawley) anesthetized with halothane according to the AVMA Panel on Euthanasia. Pups were decapitated and the brains were removed and placed in HEPES-buffered Hank's Balanced Salt solution (HBSS; Gibco). The hippocampi and cortices were dissected out and pooled according to tissue-type. Tissue was trypsinized for 15 min (1 mg/ml trypsin-HBSS; Worthington), rinsed with fresh HBSS, incubated in trypsin inhibitor (1 mg/ml; Sigma) for 5 min, rinsed again with fresh HBSS and then triturated in 1 ml fresh HBSS with a fire-polished glass pipette. Dissociated cells were seeded at 30,000 cells/well onto poly-D-lysine coated 96-well plates (Collaborative BioScience). Each well contained 100 μl of Eagle's Minimal Essential Media (MEM; Gibco) supplemented with 26 mM NaHCO3 (Sigma), 56 mM glucose (Sigma), 15 mM KCl (Sigma), 1 mM sodium pyruvate (Sigma), 1.1 mM L-glutamine (Sigma), 10% (v/v) heat-inactivated fetal bovine serum (Hyclone), and 0.001% gentamicin sulfate (Sigma) (pH 7.4). Cells were allowed to attach for 24 h in a humidified 37° C. 5% CO2 incubator before experimental treatment. The culture media was aspirated and exchanged with fresh media every three days.
(§2) Twenty-four hours after plating, cultures were treated with vehicle (PBS+0.1% BSA), 100 ng of various growth factors (brain derived neurotrophic factor (BDNF; Promega), glial-derived neurotrophic factor (GDNF; Promega), nerve growth factor (NGF; Boehringer Mannheim), basic fibroblast growth factor (bFGF; Boehringer Mannheim), insulin-like growth factor-1 (IGF-1; Boehringer Mannheim), neurotrophin-3 (NT3; Calbiochem), neurotrophin-4 (NT4; Calbiochem), ciliary neurotrophic factor (CNTF; Calbiochem), epidermal growth factor (EGF; Calbiochem), vascular endothelial growth factor (VEGF; Calbiochem)), or rhEPO (prepared same as above; 10 fM-10 nM)). Each treatment condition was run in quadruplicate or octuplicate. On the third day in culture, the media was aspirated off and replaced with fresh media and test compound. At one week in culture, the cells were fixed with 10% phosphate-buffered formalin for 15 min, then rinsed with DPBS (Sigma) and placed in blocking serum for 30 min (horse serum; 1:50 dilution in DPBS; Vector Labs). Cultures were rinsed again with DPBS and then incubated in primary antibody for 2 hr (microtubule-associated protein-2 (MAP-2) is a selective marker for dendritic processes; anti-mouse monoclonal (Chemicon); 1:1000 dilution of MAP-2 in antibody diluent (Zymed)). Negative control wells were incubated in antibody diluent alone. Background signal was determined by blank wells (cell-free) incubated with or without antibody. Cultures were rinsed again with DPBS and then placed in fluorescein for 1 hr (FITC; anti-mouse IgG; rat adsorbed; 1:50 dilution in DPBS; Vector Labs). Cultures were rinsed a final time with DPBS and then the plates were read on a Cytofluor 4000 fluorescence plate reader. Neurite outgrowth was expressed as percent change from control (vehicle; mean fluorescence±SD).
(§3) Dissociated hippocampal and cortical cell cultures were established from embryonic day 18 rat fetuses as previously described (Mattson et al., 1994). Briefly, fetuses were removed via cesarean section from pregnant moms (Sprague-Dawley) anesthetized with halothane according to the AVMA Panel on Euthanasia. Pups were decapitated and the brains were removed and placed in HEPES-buffered Hank's Balanced Salt solution (HBSS; Gibco). The hippocampi and cortices were dissected out and pooled according to tissue-type. […]

[1] = system: rat cerebral cortical cultures; test: Neurite outgrowth assay (MAP2-FITC immunofluorescence), cortical cultures; type: cell-based; conditions: for dose-response profile: 10 fM-10 nM
Excerpt: as §1, §2, §3

Row | Sequence | overall neurite outgrowth response, hippocampal versus cortical cultures (rat hippocampal cultures) | neurite outgrowth (in words) (rat hippocampal cultures; hippocampal cultures) | dose-response profile (rat hippocampal cultures; hippocampal cultures) | neurite outgrowth (in words) [1] | dose-response profile [1] | neurite outgrowth at peak activity, increase over vehicle (rat hippocampal cultures; hippocampal cultures, EMP 10 fM-10 nM, one week in culture)
1 | GGTASCHFGPLTWVCKPQGG [EMP-6] | robust neurite outgrowth activity in both hippocampal and cortical cultures | promotes neurite outgrowth | typical bell-shaped dose-response profiles | promotes neurite outgrowth | typical bell-shaped dose-response profiles | 
2 | GGTYSCFGPLTWVCKPQGG [EMP-27] | less impressive overall | promotes neurite outgrowth | flat response profile | promotes neurite outgrowth | flat response overall | 
3 | GGTYSCHFAPLTWVCKPQGG [EMP-9] | less impressive overall | promotes neurite outgrowth | flat response profile | promotes neurite outgrowth | flat response overall | 
4 | GGTYSCHFGPLTWVCKPQGG [EMP-1] | selective effects in hippocampal cultures over cortical cultures | promotes neurite outgrowth | typical bell-shaped dose-response profiles | promotes neurite outgrowth | flat response overall | 
5 | YCHFGPLTWVC [EMP-23] | effects were greater in cortical cultures than hippocampal cells | promotes neurite outgrowth | modest response | promotes neurite outgrowth | typical bell-shaped dose-response profiles | 43–46%
